# Results as given in ChEMBL document CHEMBL5653631, “A Potent and Selective ULK1 Inhibitor Suppresses Autophagy and Sensitizes Cancer Cells to Nutrient Stress” (iScience, 2018).
# How the values were obtained:
# [1] = molecular target: T1, Protein kinase C zeta type (Homo sapiens) (UniProt Q05513); experiment: Inhibition of human recombinant PKCz at 40 nM in presence of ATP by radiometric assay relative to control
# T1 sequence (whole entry): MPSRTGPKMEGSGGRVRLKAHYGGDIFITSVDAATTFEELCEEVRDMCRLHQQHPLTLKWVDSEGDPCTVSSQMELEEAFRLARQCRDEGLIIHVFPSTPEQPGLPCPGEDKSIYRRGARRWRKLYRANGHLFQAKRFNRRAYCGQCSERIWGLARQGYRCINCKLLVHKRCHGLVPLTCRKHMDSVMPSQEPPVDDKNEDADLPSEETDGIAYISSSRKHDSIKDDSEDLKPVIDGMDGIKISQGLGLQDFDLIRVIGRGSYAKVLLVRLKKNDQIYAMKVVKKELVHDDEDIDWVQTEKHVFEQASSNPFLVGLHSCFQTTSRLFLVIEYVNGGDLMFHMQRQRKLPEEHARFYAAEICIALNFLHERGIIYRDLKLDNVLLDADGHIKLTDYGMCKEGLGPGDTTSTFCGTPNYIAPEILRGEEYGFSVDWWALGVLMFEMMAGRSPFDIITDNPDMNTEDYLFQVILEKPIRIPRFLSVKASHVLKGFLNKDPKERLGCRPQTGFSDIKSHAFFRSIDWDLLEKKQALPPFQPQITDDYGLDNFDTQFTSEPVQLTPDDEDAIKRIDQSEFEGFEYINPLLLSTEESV
# [2] = molecular target: Ribosomal protein S6 kinase alpha-1 (Homo sapiens) (UniProt Q15418); experiment: Inhibition of human recombinant RSK1 at 40 nM in presence of ATP by radiometric assay relative to control
# [3] = molecular target: Interferon-induced, double-stranded RNA-activated protein kinase (Homo sapiens) (UniProt P19525); experiment: Inhibition of human recombinant PKR at 40 nM related to control ULK1
# [4] = molecular target: T2, cAMP-dependent protein kinase catalytic subunit PRKX (Homo sapiens) (UniProt P51817); experiment: Inhibition of human recombinant PRKX at 40 nM related to control ULK1
# T2 sequence (whole entry): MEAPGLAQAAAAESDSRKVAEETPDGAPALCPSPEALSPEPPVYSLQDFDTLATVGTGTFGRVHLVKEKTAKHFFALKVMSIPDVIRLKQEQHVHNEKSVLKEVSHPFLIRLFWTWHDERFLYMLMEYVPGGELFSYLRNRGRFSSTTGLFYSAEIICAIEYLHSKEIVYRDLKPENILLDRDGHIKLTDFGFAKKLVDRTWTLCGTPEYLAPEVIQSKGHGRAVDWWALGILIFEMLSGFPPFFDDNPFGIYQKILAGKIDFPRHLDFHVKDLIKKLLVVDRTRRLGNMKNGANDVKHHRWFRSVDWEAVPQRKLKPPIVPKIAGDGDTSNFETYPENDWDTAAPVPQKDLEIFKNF
# [5] = molecular target: Glycogen synthase kinase-3 beta (Homo sapiens) (UniProt P49841); experiment: Inhibition of human recombinant GSK3B at 15 nM in presence of ATP by radiometric assay relative to control
# [6] = molecular target: Insulin receptor (Homo sapiens) (UniProt P06213); experiment: Inhibition of human recombinant INSR at 15 nM in presence of ATP by radiometric assay relative to control
# [7] = molecular target: T3, MAPK/MAK/MRK overlapping kinase (Homo sapiens) (UniProt Q9UQ07); experiment: Inhibition of human recombinant MOK at 15 nM in presence of ATP by radiometric assay relative to control
# T3 sequence (whole entry): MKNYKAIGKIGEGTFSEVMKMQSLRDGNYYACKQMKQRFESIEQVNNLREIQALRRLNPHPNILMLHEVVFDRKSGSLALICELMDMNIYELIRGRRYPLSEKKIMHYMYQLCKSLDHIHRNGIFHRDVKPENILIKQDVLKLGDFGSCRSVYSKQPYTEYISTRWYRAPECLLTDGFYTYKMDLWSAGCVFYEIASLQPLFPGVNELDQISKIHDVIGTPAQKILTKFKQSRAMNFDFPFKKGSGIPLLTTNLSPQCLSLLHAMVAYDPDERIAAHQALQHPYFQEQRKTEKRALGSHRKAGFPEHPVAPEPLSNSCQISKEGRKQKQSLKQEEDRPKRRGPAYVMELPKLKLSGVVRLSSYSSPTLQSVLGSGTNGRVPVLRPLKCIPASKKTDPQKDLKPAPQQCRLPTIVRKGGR
# [8] = molecular target: Serine/threonine-protein kinase MRCK alpha (Homo sapiens) (UniProt Q5VT25); experiment: Inhibition of human recombinant MRCKa at 15 nM in presence of ATP by radiometric assay relative to control
# [9] = molecular target: Tyrosine-protein kinase SYK (Homo sapiens) (UniProt P43405); experiment: Inhibition of human recombinant SYK at 15 nM in presence of ATP by radiometric assay relative to control
# [10] = molecular target: Serine/threonine-protein kinase D2 (Homo sapiens) (UniProt Q9BZL6); experiment: Inhibition of human recombinant PKD2 at 15 nM related to control ULK1
# [11] = molecular target: Serine/threonine-protein kinase SBK1 (Homo sapiens) (UniProt Q52WX2); experiment: Inhibition of human recombinant SBK1 at 500 nM in presence of ATP by radiometric assay relative to control
# [12] = molecular target: Tau-tubulin kinase 1 (Homo sapiens) (UniProt Q5TCY1); experiment: Inhibition of human recombinant TTBK1 at 500 nM in presence of ATP by radiometric assay relative to control
# [13] = molecular target: RAF proto-oncogene serine/threonine-protein kinase (Homo sapiens) (UniProt P04049); experiment: Inhibition of human recombinant RAF1 at 500 nM related to control ULK1
# RAF proto-oncogene serine/threonine-protein kinase (Homo sapiens), sequence (P04049 whole entry): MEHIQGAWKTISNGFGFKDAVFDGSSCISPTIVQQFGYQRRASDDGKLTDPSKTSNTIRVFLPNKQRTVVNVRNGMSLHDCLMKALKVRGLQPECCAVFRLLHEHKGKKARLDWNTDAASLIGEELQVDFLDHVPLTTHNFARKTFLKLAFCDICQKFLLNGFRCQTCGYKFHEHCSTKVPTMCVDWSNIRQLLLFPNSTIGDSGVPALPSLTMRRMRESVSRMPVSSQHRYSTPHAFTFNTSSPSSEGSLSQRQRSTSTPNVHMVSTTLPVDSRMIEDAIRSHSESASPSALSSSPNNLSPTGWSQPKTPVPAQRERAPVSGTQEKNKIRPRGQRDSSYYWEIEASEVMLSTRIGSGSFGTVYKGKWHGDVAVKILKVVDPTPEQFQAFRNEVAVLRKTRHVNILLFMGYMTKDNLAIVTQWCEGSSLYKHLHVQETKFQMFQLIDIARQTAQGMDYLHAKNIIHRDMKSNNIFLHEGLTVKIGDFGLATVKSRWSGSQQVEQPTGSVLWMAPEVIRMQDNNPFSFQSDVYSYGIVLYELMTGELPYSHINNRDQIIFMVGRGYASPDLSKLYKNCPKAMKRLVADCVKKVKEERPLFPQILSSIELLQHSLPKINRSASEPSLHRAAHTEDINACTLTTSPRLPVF
# Tau-tubulin kinase 1 (Homo sapiens), sequence (Q5TCY1 whole entry): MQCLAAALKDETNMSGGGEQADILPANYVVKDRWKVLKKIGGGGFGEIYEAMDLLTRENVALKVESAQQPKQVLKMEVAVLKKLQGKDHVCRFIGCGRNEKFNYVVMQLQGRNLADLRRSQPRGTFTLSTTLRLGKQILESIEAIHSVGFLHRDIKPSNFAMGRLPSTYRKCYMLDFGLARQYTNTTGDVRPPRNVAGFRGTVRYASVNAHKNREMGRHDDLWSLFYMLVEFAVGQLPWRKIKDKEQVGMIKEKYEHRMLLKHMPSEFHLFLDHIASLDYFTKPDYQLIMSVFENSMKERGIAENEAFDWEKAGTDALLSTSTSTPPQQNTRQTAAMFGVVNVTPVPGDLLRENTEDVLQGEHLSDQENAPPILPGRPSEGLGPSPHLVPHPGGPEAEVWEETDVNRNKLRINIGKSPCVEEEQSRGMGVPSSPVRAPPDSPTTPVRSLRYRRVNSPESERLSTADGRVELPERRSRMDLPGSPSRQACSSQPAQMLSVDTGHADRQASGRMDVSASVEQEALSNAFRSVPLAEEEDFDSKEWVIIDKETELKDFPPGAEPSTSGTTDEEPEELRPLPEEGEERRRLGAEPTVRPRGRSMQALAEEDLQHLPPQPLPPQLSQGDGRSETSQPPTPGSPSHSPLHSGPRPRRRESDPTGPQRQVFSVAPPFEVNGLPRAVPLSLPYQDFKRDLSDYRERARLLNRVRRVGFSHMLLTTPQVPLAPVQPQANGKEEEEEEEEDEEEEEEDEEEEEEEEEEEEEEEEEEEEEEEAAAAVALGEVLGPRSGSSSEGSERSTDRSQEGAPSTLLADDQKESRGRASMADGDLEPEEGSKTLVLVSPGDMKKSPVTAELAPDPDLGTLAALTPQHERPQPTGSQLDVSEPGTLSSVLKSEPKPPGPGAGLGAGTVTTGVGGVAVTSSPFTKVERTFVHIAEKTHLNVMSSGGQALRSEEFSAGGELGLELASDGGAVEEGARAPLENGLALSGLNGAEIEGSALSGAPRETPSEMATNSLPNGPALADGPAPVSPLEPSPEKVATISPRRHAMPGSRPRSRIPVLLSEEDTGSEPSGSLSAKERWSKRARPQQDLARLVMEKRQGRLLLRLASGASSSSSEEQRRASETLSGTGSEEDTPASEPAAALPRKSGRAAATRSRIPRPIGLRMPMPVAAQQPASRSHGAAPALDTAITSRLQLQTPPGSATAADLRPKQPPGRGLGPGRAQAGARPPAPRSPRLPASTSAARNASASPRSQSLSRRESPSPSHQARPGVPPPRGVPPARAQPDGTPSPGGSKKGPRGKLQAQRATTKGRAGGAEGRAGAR
# Serine/threonine-protein kinase MRCK alpha (Homo sapiens), sequence (Q5VT25 whole entry): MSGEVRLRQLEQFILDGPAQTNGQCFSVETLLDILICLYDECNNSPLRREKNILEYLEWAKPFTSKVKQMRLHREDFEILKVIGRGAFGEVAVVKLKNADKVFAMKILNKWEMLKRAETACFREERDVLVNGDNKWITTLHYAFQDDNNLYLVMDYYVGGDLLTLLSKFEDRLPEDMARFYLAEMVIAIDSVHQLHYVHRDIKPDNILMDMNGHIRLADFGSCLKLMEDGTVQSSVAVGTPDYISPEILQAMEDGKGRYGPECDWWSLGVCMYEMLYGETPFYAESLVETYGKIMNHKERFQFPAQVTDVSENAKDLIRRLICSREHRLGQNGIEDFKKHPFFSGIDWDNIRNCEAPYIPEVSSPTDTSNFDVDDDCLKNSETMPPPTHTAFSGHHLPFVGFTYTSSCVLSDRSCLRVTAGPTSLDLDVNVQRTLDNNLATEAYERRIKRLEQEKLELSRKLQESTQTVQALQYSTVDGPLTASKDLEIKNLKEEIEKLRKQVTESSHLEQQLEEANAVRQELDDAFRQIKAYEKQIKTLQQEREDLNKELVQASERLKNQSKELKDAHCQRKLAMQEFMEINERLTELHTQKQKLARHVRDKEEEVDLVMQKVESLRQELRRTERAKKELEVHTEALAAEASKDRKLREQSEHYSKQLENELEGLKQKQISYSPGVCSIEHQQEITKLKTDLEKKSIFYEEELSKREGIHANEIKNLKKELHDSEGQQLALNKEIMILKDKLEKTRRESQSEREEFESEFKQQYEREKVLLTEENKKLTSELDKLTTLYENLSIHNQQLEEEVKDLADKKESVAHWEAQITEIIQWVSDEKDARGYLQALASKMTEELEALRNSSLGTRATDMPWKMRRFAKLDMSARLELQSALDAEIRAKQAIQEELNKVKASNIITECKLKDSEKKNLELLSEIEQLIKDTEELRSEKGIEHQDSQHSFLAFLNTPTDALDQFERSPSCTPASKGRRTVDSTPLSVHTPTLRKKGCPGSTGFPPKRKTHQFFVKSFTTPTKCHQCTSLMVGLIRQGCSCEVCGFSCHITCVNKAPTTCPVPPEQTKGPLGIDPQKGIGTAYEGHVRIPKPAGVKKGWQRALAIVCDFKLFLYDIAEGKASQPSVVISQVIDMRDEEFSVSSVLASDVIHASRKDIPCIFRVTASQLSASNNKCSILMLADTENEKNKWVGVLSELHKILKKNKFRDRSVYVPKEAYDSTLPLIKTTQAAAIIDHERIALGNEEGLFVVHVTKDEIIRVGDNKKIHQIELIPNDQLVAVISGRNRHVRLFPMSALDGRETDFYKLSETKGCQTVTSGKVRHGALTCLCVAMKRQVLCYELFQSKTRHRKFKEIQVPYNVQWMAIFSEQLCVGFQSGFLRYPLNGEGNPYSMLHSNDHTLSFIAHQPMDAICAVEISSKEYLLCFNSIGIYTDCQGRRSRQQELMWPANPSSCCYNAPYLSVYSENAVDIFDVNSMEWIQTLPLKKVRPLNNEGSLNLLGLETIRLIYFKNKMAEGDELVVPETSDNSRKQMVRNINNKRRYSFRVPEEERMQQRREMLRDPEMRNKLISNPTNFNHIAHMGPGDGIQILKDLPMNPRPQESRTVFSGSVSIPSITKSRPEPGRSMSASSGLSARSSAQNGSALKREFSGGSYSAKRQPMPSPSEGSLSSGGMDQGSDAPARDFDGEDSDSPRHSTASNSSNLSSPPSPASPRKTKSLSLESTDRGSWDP
# Interferon-induced, double-stranded RNA-activated protein kinase (Homo sapiens), sequence (P19525 whole entry): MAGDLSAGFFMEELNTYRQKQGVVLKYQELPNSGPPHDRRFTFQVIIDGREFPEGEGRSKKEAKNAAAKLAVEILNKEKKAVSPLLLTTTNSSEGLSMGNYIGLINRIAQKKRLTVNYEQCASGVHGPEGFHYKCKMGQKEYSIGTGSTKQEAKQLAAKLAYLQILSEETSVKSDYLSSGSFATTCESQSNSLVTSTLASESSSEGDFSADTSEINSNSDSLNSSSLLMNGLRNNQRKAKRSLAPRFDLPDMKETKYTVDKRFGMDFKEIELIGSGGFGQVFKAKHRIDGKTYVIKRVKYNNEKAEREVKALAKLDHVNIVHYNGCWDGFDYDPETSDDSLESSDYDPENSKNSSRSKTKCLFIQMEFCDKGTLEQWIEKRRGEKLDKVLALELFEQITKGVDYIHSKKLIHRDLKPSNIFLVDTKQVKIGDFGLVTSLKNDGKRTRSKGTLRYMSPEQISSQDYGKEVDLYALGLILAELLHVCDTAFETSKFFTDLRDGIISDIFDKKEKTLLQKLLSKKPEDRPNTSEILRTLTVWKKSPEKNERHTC
# Serine/threonine-protein kinase SBK1 (Homo sapiens), sequence (Q52WX2 whole entry): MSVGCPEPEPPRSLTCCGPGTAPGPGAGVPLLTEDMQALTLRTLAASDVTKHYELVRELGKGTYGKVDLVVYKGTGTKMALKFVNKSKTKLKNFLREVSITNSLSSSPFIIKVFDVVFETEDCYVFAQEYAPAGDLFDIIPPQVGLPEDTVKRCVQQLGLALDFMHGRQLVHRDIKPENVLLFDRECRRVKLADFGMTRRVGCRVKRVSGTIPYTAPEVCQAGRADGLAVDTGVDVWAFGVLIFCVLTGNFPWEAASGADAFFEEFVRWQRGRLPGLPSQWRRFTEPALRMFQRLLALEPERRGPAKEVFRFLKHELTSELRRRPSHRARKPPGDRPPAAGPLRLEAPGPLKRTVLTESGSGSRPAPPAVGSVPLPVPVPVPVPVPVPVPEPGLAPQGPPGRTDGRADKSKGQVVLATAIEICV
# Glycogen synthase kinase-3 beta (Homo sapiens), sequence (P49841 whole entry, looked up): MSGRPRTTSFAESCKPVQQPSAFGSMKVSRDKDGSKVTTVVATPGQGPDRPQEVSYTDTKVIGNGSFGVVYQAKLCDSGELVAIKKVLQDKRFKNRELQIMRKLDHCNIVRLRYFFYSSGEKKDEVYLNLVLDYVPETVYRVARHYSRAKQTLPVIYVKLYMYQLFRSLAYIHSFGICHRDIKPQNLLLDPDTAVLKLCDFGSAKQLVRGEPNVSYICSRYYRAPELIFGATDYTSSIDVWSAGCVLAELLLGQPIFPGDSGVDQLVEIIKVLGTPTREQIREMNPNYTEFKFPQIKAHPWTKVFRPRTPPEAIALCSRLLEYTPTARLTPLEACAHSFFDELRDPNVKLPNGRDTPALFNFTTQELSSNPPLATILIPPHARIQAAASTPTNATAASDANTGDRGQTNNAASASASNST
structure (smiles),measurement,setting,value
O=C(N[C@@H](C1CC1)C(F)(F)F)c1cc(-c2cnn3cc(-c4ccc(F)cc4)cnc23)cs1,inhibition,[1],0%
same,inhibition,[2],8%
same,fold change (FC),[3],0
same,fold change (FC),[4],0.27
CC(C)[C@H](NC(=O)c1cc(-c2cnn3cc(-c4ccc(OCCN5CCCCC5)cc4)cnc23)cs1)C(F)(F)F,inhibition,[5],11%
same,inhibition,[6],0%
same,inhibition,[7],5%
same,inhibition,[8],11%
same,inhibition,[9],0%
same,fold change (FC),[10],0
CNC(=O)c1ccccc1Oc1nc(Nc2cc(OC)c(OC)c(OC)c2)ncc1Br,inhibition,[11],50%
same,inhibition,[12],1%
same,fold change (FC),[13],0.15
